Results as given in article PMC5970136, “Molecular basis of dimer formation during the biosynthesis of benzofluorene-containing atypical angucyclines” (Nature Communications, 2018).
In brackets after ≈: the same amount, converted by molar mass.

Columns and labels:
Experiment in all cases: microbe, parasite or virus in culture
Design in all cases: broth microdilution in Mueller-Hinton broth, minimum inhibitory concentration
A. baumannii ATCC 19606 = test system: T1, A. baumannii ATCC 19606; conditions: Acinetobacter baumannii, ATCC19606, 18 h
T1 construct: ATCC 19606
Protocol: (§1) Antimicrobial activities were measured against seven indicator strains (Staphylococcus aureus ATCC 29213, Escherichia coli ATCC 25922, Enterococcus faecalis ATCC 29212, Acinetobacter baumannii ATCC 19606, Bacillus subtilis SCSIO BS01, Micrococcus Luteus SCSIO ML01, and methicillin resistant S. aureus ATCC 43300) by the broth microdilution method[8],[9]. Bacterial strains were grown to achieve an optical absorbance of 0.04−0.06 at 600 nm on a rotary shaker at 37 °C. […] The minimum inhibitory concentration (MIC) values were measured after 18 h cultivation. Each compound was tested in triplicates with TMP as a positive control. […] A proof of concept experiment was carried out in which FST D (7) was incubated with the antibacterial agent trimethoprim (TMP, 34). Two products 35 and 36 isolated from this reaction (Fig. 6a, Supplementary Fig. 128) were structurally characterized as hybrids of TMP and FST (Fig. 6a; Supplementary Figs. 129−142). Similar results were obtained upon incubation of TMP (34) with compound 27, but not with compound 28 (Supplementary Fig. 143). These findings again support the hypothesis that spontaneous formation of a p-QM precursor is a prerequisite for the production of FST hybrids.

B. subtilis SCSIO BS01 = test system: T2, B. subtilis SCSIO BS01; conditions: Bacillus subtilis, SCSIOBS01, 18 h
T2 construct: SCSIO BS01
Protocol: as §1

E. coli ATCC 25922 = test system: T3, E. coli ATCC 25922; conditions: Escherichia coli, ATCC25922, 18 h
T3 construct: ATCC 25922
Protocol: as §1

E. faecalis ATCC 29212 = test system: T4, E. faecalis ATCC 29212; conditions: Enterococcus faecalis, ATCC29212, 18 h
T4 construct: ATCC 29212
Protocol: as §1

M. Luteus SCSIO ML01 = test system: T5, M. Luteus SCSIO ML01; conditions: Micrococcus luteus, 18 h
T5 construct: SCSIO ML01
Protocol: as §1

S. aureus ATCC 29213 = test system: T6, S. aureus ATCC 29213; conditions: Staphylococcus aureus, ATCC29213, 18 h
T6 construct: ATCC 29213
Protocol: as §1

[1] = test system: T7, Staphylococcus aureus MRSA ATCC 43300; conditions: 18 h
T7 construct: ATCC 43300 (methicillin resistant)
Protocol: as §1

| SMILES | MIC (A. baumannii ATCC 19606) [µg/mL] | MIC (B. subtilis SCSIO BS01) [µg/mL] | MIC (E. coli ATCC 25922) [µg/mL] | MIC (E. faecalis ATCC 29212) [µg/mL] | MIC (M. Luteus SCSIO ML01) [µg/mL] | MIC (S. aureus ATCC 29213) [µg/mL] | MIC [1] [µg/mL] |
| --- | --- | --- | --- | --- | --- | --- | --- |
| Cc1ccc2c(c1)OC1(C)C(=O)c3cc(O)c4c(c3C(N2)C1O)C(=O)c1cccc(O)c1-4 (centres unmarked) [compound 33, 33] | > 64 | > 64 | > 64 | > 64 | > 64 | > 64 | > 64 |
| Cc1cc(O)cc(O)c1C(=O)c1c(O)cccc1Cc1cc2c(c(=O)o1)C1c3c(cc(O)c4c3C(=O)c3cccc(O)c3-4)C(=O)C(C)(O2)C1O (centres unmarked) [compound 16, difluostatin C] | > 64 | > 64 | > 64 | > 64 | > 64 | > 64 | > 64 |
| Cc1ccc2c3c(c(O)cc2c1O)-c1c(O)cccc1C3=O [compound 12, isoprefluostatin] | > 64 | 32 (≈ 109 µM) | > 64 | > 64 | 64 (≈ 219 µM) | 64 (≈ 219 µM) | 64 (≈ 219 µM) |
| COC1c2c(cc(O)c3c2C(=O)c2c(C4c5c(cc(O)c6c5C(=O)c5cccc(O)c5-6)C(=O)C5(C)OC45)ccc(O)c2-3)C(=O)C2(C)OC12 (centres unmarked) [compound 26, difluostatin H] | > 64 | 64 (≈ 99.3 µM) | > 64 | > 64 | > 64 | > 64 | > 64 |
| CC12OC1C(O)c1c(cc(O)c3c1C(=O)c1c(C4c5c(cc(O)c6c5C(=O)c5cccc(O)c5-6)C(=O)C5(C)OC45)ccc(O)c1-3)C2=O (centres unmarked) [compound 24, difluostatin F] | > 64 | > 64 | > 64 | > 64 | > 64 | > 64 | > 64 |
| COc1cc(Cc2cnc(N)nc2N)cc(OC)c1OC [Trimethoprim] | 64 (≈ 220 µM) | 0.5 (≈ 1.72 µM) | 0.25 (≈ 0.861 µM) | 2 (≈ 6.89 µM) | 1 (≈ 3.44 µM) | 0.5 (≈ 1.72 µM) | 0.5 (≈ 1.72 µM) |
| CC(=O)NN1c2c(c3c(c4c2C(=O)C(C)(O)C=C4)C(=O)c2cccc(O)c2-3)OC2C1c1c(cc(O)c3c1C(=O)c1cccc(O)c1-3)C(=O)C2(C)O (centres unmarked) [compound 15, difluostatin B] | > 64 | > 64 | > 64 | > 64 | > 64 | > 64 | > 64 |
| C[C@]12O[C@H]1[C@H](Nc1ccc(C(=O)O)cc1)c1c(cc(O)c3c1C(=O)c1cccc(O)c1-3)C2=O [compound 14, FST S] | > 64 | > 64 | > 64 | > 64 | > 64 | > 64 | > 64 |
